Data reported in patent publication US20260007728A1, “COMBINATION THERAPIES INVOLVING L-ASPARAGINASE” (Jazz Pharmaceuticals Ireland Ltd., priority 2022, published 2026).

Columns and labels:
[1] = test system: ASNS expression in Burkitt lymphoma lines; test: qPCR gene expression after compound treatment; type: cell-based
Protocol: Cell Culture: Cell culture medium: RPMI 1640 medium (#2198761, Thermo Fisher) supplemented with 10% fetal calf serum (#S00AZ, BioWest) and 1% pen/strep (#15140-122, Thermo Fisher). At day-1, 900 μl cell suspension was seeded in 24-well plates (#662165, Greiner Bio-One) at a density of 128,000 cells/well. At day 0, 100 μl compound was added in three different concentrations to reach a final concentration of 0.316×IC50, 1×IC50, and 3.16×IC50 (unless indicated otherwise). To the control samples, 100 μl 20 mM HEPES+3.16% DMSO was added instead of compound. When the compound is prepared in HEPES instead of DMSO, 20 mM HEPES without DMSO was added to the cells. The cells were collected at 6 hours, 24 hours and 48 hours after addition of the compound and were transferred to a 96-well deep well plate and centrifuged for 5 min at 340×g. Prior to the collection of the cells microscopic pictures were taken from the untreated (control) cells. After removing the medium, 200 μl RNA protect (#76526, Qiagen) was added to the cell pellet and the cells were stored at −80° C.
RNA isolation: Total RNA was isolated with the SV96 Total RNA Isolation System kit (#Z3505, Promega) according to manufacturer's instructions. The procedure includes a ‘RNAse free DNAse’ gDNA removal step.
Determining the RNA concentration: RNA concentrations were determined with the RiboGreen (#R11490, Thermo Fisher) kit according to manufacturer's instructions.
cDNA synthesis: RNA was reverse transcribed into cDNA using the Quantitect Reverse Transcript Kit (#205313, Qiagen) according to manufacturer's instructions. This procedure includes a second ‘RNAse free DNAse’ gDNA removal step, ensuring the complete removal of gDNA from the samples. For each time point (6 h, 24 h, or 48 h) identical volumes of RNA were used for cDNA synthesis. After synthesis, cDNA is diluted with nuclease free water to obtain approximately similar cDNA concentrations per sample.
qPCR: 1) 50° C. for 10 min (Uracil-DNA glycosylase ([…]) step to remove all potential traces of amplicon DNA from previous qPCRs); 2) 5 min UDP inactivation/denaturation at 95° C.; 3) 40 cycles of 10s denaturation at 95° C., 20s annealing at 60° C., and 30s extension at 72° C.; and 4) Dissociation curve to determine the melting temperature of the qPCR amplicon.
qPCR Data Analysis: Cq and Tm raw data values are determined by the BioRad CFX manager software from the PCR machine. For every PCR sample that produced a Cq value the corresponding melting temperature of the PCR amplicon (Tm) was checked to identify samples that generated dual or a specific PCR products. A PCR product is regarded a specific when its Tm is >0.5° C. different from that the Tm of the specific PCR amplicon, in this case the Cq value is removed and not used for further data analysis. Cq values were than normalized by subtracting the (mean) Cq value of the two housekeeping genes (ACTB & RPS18) from the Cq value of the gene of interest. The normalized value is called DCq. The Cq difference between sample and the control (DDCq) was calculated by subtracting DCq control from DCq sample. The fold difference in expression between the control (no compound) and the compound treated sample is than calculated according the 2^-DDCq method.

[2] = test system: DLBCL lines; test: Single-agent sensitivity of lymphoma lines (dose-response, 72 hrs incubation); type: cell-based; conditions: ABC, GCB, and THL lines; read-out: sensitivity to carfilzomib (range)
Excerpt: Sensitivity to asparaginase and 11 chemotherapeutic agents (carfilzomib, doxorubicin, rapamycin, ibrutinib, cyclophosphamide, prednisolone, metformin, venetoclax, navitoclax, rituximab and vincristine) determined in 8 lymphoma lines, including diffuse large B-cell and Burkitt lymphomas. The investigated lymphoma lines are sensitive to asparagine depletion within the clinically achievable range. Expression of decisive genes (BCL2, BCL6, BCL2L1, MYC, ASNS) determined in 8 lymphoma lines (FIGS. 11 and 12). Increased expression of BCL2 served as marker for resistance of ibrutinib and rapamycin in triple hit lymphoma (FIGS. 11 and 12). Increased expression of ASNS served as marker for resistance of carfilzomib and asparaginase in Burkitt lymphoma (FIGS. 11 and 12). Identified combination agents that enhanced asparaginase activity in vitro include synergy of JZP458 and rituximab, venetoclax and ibrutinib in lymphoma lines (DLBCL) (see FIG. 13, FIG. 15, and FIG. 17). […] In vivo tolerability study of long acting Erwinia Asparaginase.
ABC-DLBCL lines and one of GCB-DLBCL lines are very sensitive to JZP458 in the range of 0.011-7.3 IU/mL. Dose-response curve overlays-72 hrs incubation.

IC50 [2]: 1.3 to 7.2 nM
Structure (SMILES): CC(C)C[C@H](NC(=O)[C@H](CCc1ccccc1)NC(=O)CN1CCOCC1)C(=O)N[C@@H](Cc1ccccc1)C(=O)N[C@@H](CC(C)C)C(=O)[C@@]1(C)CO1 [carfilzomib, reference compound]
change of ASNS expression ([1]; Burkitt lymphoma lines): significantly increase | increase of ASNS expression ([1]; Burkitt lymphoma lines (BJAB, RAJI, RAMOS), after treatment): 1.25 fold
